Test results as given in patent publication US5610282A (The United States of America as represented by the …, priority 1995, dated 1997).

Target: T1, D1 dopamine receptor (Rattus norvegicus, UniProt P18901)
T1 construct: The longest open reading frame in this cDNA codes for a 487 residue protein; expressed in transfected cells; host or cells: COS-7 cells (transient, plasmid pSRalpha-D1)
Type: cell-based
Conditions: agonist 1 uM, with 0.5 uM propranolol

T1 sequence (P18901 whole entry): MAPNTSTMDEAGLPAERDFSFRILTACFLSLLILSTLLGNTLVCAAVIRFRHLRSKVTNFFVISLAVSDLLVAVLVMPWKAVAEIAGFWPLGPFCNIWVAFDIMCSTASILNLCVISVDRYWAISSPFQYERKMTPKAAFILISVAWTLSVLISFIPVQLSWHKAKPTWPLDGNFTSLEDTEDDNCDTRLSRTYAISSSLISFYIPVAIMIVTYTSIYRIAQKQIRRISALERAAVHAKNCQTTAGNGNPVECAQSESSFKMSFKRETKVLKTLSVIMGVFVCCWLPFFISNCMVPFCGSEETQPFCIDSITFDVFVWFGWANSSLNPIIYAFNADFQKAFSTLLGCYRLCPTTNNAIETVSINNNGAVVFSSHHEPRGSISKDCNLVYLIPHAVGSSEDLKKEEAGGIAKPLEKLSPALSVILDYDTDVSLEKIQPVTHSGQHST

SMILES	stimulation of cAMP accumulation (in words)
CNC[C@H](O)c1ccc(O)c(O)c1 [epinephrine]	low potency relative to dopamine
Oc1cc2c(cc1O)C(c1ccccc1)CNCC2 (stereo not drawn) [SKF-38393 (-)isomer, SKF-38393]	lower potency
